From article PMC7587601, “A Rose Extract Protects the Skin against Stress Mediators: A Potential Role of Olfactory Receptors” (Molecules, 2020)

Assays:
Type in all cases: cell-based, human
Details in all cases: epinephrine 56 nM alone, 9 days
[1] = system: OR2AG2 protein; assay: OR2AG2 protein expression in skin explants (immunohistochemistry)
Procedure: (§1) For immunohistochemical staining on human skin, 5-μm-thick sections were made. The same primary antibodies were used (anti-OR10A6 (1:200; Abcam, #ab129837), anti-OR11H4 (1:200; ThermoFisher, #PA5-562685), anti-OR2AG2 (1:100; ThermoFisher, #PA5-538166)). […] Image processing was performed using ImageJ 2.0 software. […]
(§2) Human skin explants were recovered from the abdominal tissue of a person and kept in a culture medium at 37 °C, under 5% CO2. […] Each condition was evaluated on 3 different explants and compared to control (untreated explant). […]
(§3) mounting medium (Santa Cruz, UltraCruz Mounting Medium # sc-24941). […] Cells were observed using a Zeiss microscope and images were analyzed with ImageJ 2.0 software. […]
(§4) observations were realized using an Olympus BX43 microscope. […] Quantification of the proteins of interest (stained purple) was performed through microscopic observation and image analysis. Results were expressed as a percentage of untreated control explants. The relative change (Δ%) between the two tested conditions was also calculated. […]
(§5) AlexaFluor 546 (ThermoFisher, #A11035) goat anti-rabbit IgG secondary antibody, diluted in 1:800 in PBS 1X with 1% BSA, for 1h at room temperature. […] The green channel was used to quantify the fluorescence resulting from OR labelling in the same region. […]

[2] = system: γH2AX; assay: Epinephrine-induced stress model in skin explants, γH2AX immunostaining
Procedure: (§6) To study the potential involvement of ORs in skin response to chronic stress, an ex vivo epinephrine-induced stress model was designed. Three different markers, known to increase under stress conditions, were measured to estimate the stress response of skin (Figure 3A). G6PDH was used as a marker for cell metabolism, loricrin for cell differentiation, and γH2AX for DNA damage.
(§7) For immunohistochemical staining on human skin, 5-μm-thick sections were made. The same primary antibodies were used (anti-OR10A6 (1:200; Abcam, #ab129837), anti-OR11H4 (1:200; ThermoFisher, #PA5-562685), anti-OR2AG2 (1:100; ThermoFisher, #PA5-538166)). […] Image processing was performed using ImageJ 2.0 software. For primary G6PDH (1:100 dilution; Sigma Aldrich, St. Louis, MO, USA, #HPA000247), loricrine (1:1600 dilution; Covance, Princeton, NJ, USA, #PRB-145P), γH2AX (1:800; Abcam, Cambridge, UK, #ab26350) antibodies staining, tissue cryosections were […] and immunostaining was performed using an automated slide processing system (Autostainer Dako, Agilent, Santa Clara, CA, USA). […] Microscopical observations were realized using an Olympus BX43 microscope. Photographs were digitized with a numeric DP72 Olympus camera and CellD storing software (Waltham, MA, USA). The detailed protocols were described in the supplementary materials. […]

[3] = system: OR11H4 protein; assay: OR11H4 protein expression in skin explants (immunohistochemistry)
Procedure: as §1, §2, §3, §4, §5

[4] = system: loricrin; assay: Epinephrine-induced stress model in skin explants, loricrin immunostaining
Procedure: as §6, §7

[5] = system: OR10A6 protein; assay: OR10A6 protein expression in skin explants (immunohistochemistry)
Procedure: as §1, §2, §3, §4, §5

[6] = system: OR10A6 mRNA; assay: OR10A6 mRNA expression in skin explants (RT-qPCR)
Procedure: (§8) For NHEKs, total RNA was isolated and purified using RNeasy Mini Kit (Qiagen, Hilden, Germany, #74104) following the manufacturer’s protocol. For RNA extraction from skin sections, Trizol (ThermoFisher, Waltham, MA, USA, #15596026) was used following the manufacturer’s protocol. Purity was determined with commercial Agilent kit RNA 6000 Nano Kit (Agilent, Santa Clara, CA, USA, #5067-1511) using Agilent 2100 Bioanalyzer according to the manufacturer’s recommendations and the concentration was quantified with a Nanodrop 2000c (ThermoFisher, Waltham, MA, USA). Real-time quantitative polymerase chain reaction (qRT-PCR) was run in triplicate using TaqMan™ Fast Advanced Master Mix (ThermoFisher, Waltham, MA, USA, #4444557) and gene Expression Assay transcripts (ThermoFisher, Waltham, MA, USA) on the AriaMx Real-time PCR System (Agilent, Santa Clara, CA, USA) according to the manufacturer’s recommendations. Real-time quantification plots and Ct values were collected and stored in AriaMx software (version 2.1). […]
as §2
(§9) System (Agilent) according to the manufacturer’s recommendations. Real-time quantification plots and Ct values were collected and stored in AriaMx software. […]

[7] = system: G6PDH; assay: Epinephrine-induced stress model in skin explants, G6PDH immunostaining
Procedure: as §6, §7

[8] = system: OR11H4 mRNA; assay: OR11H4 mRNA expression in skin explants (RT-qPCR)
Procedure: as §8, §2, §9

[9] = system: OR2AG2 mRNA; assay: OR2AG2 mRNA expression in skin explants (RT-qPCR)
Procedure: as §8, §2, §9

For `CNC[C@H](O)c1ccc(O)c(O)c1` [epinephrine], the “OR2AG2 protein expression, relative intensity staining” value [1] was 0.81 ± 0.15, the “γH2AX expression, fold change” value [2] was 1.7 ± 0.47 and the OR11H4 protein expression [3] was “No change”. For the same molecule, the “loricrin expression, fold change” value [4] was 2.3 ± 1.17, the “OR10A6 protein expression, relative intensity staining” value [5] was 0.77 ± 0.34 and the “OR10A6 mRNA level, fold change” value [6] was 0.45 ± 0.2. For the same molecule, the “G6PDH expression, fold change” value [7] was 1.26 ± 0.19, the “OR11H4 mRNA level, fold change” value [8] was 0.52 ± 0.2 and the “OR2AG2 mRNA level, fold change” value [9] was 0.51 ± 0.3.
